Assay results taken from patent publication US10681909B2, “Herbicidal triazoles” (FMC Corporation, priority 2014, dated 2020).

How the values were obtained:
[1] = tested on: barnyardgrass; assay: Test A preemergence; type: in vivo, Echinochloa crus-galli; settings: 0 to 100 scale (0 no effect, 100 complete control)
Excerpt: (§1) Seeds of plant species selected from barnyardgrass (Echinochloa crus-galli), crabgrass, large (large crabgrass, Digitaria sanguinalis), kochia (Kochia scoparia), ragweed (common ragweed, Ambrosia elatior), foxtail, giant (giant foxtail, Setaria faberii), morningglory (Ipomoea spp.), pigweed (Amaranthus retroflexus), velvetleaf (Abutilon theophrasti), ryegrass, Italian (Italian ryegrass, Lolium multiflorum), wheat (Triticum aestivum), and corn (Zea mays) were planted into a blend of loam soil and sand and treated preemergence with a directed soil spray using test chemicals formulated in a non-phytotoxic solvent mixture which included a surfactant. At the same time, plants selected from these crop and weed species and also blackgrass (Alopecurus myosuroides), and galium (catchweed bedstraw, Galium aparine), were planted in pots containing the same blend of loam soil and sand and treated with postemergence applications of test chemicals formulated in the same manner. Plants ranged in height from 2 to 10 cm and were in the one- to two-leaf stage for the postemergence treatment. […] A dash (-) response means no test result.

[2] = tested on: kochia; assay: Test A preemergence; type: in vivo, Kochia scoparia; settings: 0 to 100 scale (0 no effect, 100 complete control)
Excerpt: (§2) Seeds of plant species selected from barnyardgrass (Echinochloa crus-galli), crabgrass, large (large crabgrass, Digitaria sanguinalis), kochia (Kochia scoparia), ragweed (common ragweed, Ambrosia elatior), foxtail, giant (giant foxtail, Setaria faberii), morningglory (Ipomoea spp.), pigweed (Amaranthus retroflexus), velvetleaf (Abutilon theophrasti), ryegrass, Italian (Italian ryegrass, Lolium multiflorum), wheat (Triticum aestivum), and corn (Zea mays) were planted into a blend of loam soil and sand and treated preemergence with a directed soil spray using test chemicals formulated in a non-phytotoxic solvent mixture which included a surfactant.
(§3) At the same time, plants selected from these crop and weed species and also blackgrass (Alopecurus myosuroides), and galium (catchweed bedstraw, Galium aparine), were planted in pots containing the same blend of loam soil and sand and treated with postemergence applications of test chemicals formulated in the same manner. Plants ranged in height from 2 to 10 cm and were in the one- to two-leaf stage for the postemergence treatment. Treated plants and untreated controls were maintained in a greenhouse for approximately 10 d, after which time all treated plants were compared to untreated controls and visually evaluated for injury. Plant response ratings, summarized in Table A, are based on a 0 to 100 scale where 0 is no effect and 100 is complete control. A dash (-) response means no test result.

[3] = tested on: ragweed; assay: Test A preemergence; type: in vivo, Ambrosia elatior; settings: 0 to 100 scale (0 no effect, 100 complete control)
Excerpt: as §2, §3

[4] = tested on: foxtail, giant; assay: Test A preemergence; type: in vivo, Setaria faberii; settings: 0 to 100 scale (0 no effect, 100 complete control)
Excerpt: as §1

[5] = tested on: pigweed; assay: Test A preemergence; type: in vivo, Amaranthus retroflexus; settings: 0 to 100 scale (0 no effect, 100 complete control)
Excerpt: as §1

[6] = tested on: ryegrass, Italian; assay: Test A preemergence; type: in vivo, Lolium multiflorum; settings: 0 to 100 scale (0 no effect, 100 complete control)
Excerpt: as §2, §3

[7] = tested on: barnyardgrass; assay: Test A postemergence; type: in vivo, Echinochloa crus-galli; settings: 0 to 100 scale (0 no effect, 100 complete control), approx. 10 d
Excerpt: as §1

[8] = tested on: kochia; assay: Test A postemergence; type: in vivo, Kochia scoparia; settings: 0 to 100 scale (0 no effect, 100 complete control), approx. 10 d
Excerpt: as §2, §3

[9] = tested on: ragweed; assay: Test A postemergence; type: in vivo, Ambrosia elatior; settings: 0 to 100 scale (0 no effect, 100 complete control), approx. 10 d
Excerpt: as §2, §3

[10] = tested on: foxtail, giant; assay: Test A postemergence; type: in vivo, Setaria faberii; settings: 0 to 100 scale (0 no effect, 100 complete control), approx. 10 d
Excerpt: as §1

[11] = tested on: pigweed; assay: Test A postemergence; type: in vivo, Amaranthus retroflexus; settings: 0 to 100 scale (0 no effect, 100 complete control), approx. 10 d
Excerpt: as §1

[12] = tested on: ryegrass, Italian; assay: Test A postemergence; type: in vivo, Lolium multiflorum; settings: 0 to 100 scale (0 no effect, 100 complete control), approx. 10 d
Excerpt: as §2, §3

[13] = tested on: wheat; assay: Test A postemergence; type: in vivo, Triticum aestivum; settings: 0 to 100 scale (0 no effect, 100 complete control), approx. 10 d
Excerpt: as §1

[14] = tested on: corn; assay: Test A postemergence; type: in vivo, Zea mays; settings: 0 to 100 scale (0 no effect, 100 complete control), approx. 10 d
Excerpt: as §1

[15] = tested on: blackgrass; assay: Test A postemergence; type: in vivo, Alopecurus myosuroides; settings: 0 to 100 scale (0 no effect, 100 complete control), approx. 10 d
Excerpt: as §2, §3

[16] = tested on: galium; assay: Test A postemergence; type: in vivo, Galium aparine; settings: 0 to 100 scale (0 no effect, 100 complete control), approx. 10 d
Excerpt: as §2, §3

Structure (SMILES)	Plant response rating, Barnyardgrass ([1]; 31 g ai/ha)	Plant response rating, Barnyardgrass ([1]; 125 g ai/ha)	Plant response rating, Kochia ([2]; 31 g ai/ha)	Plant response rating, Kochia ([2]; 125 g ai/ha)	Plant response rating, Ragweed ([3]; 31 g ai/ha)	Plant response rating, Ragweed ([3]; 125 g ai/ha)	Plant response rating, Foxtail, Giant ([4]; 31 g ai/ha)	Plant response rating, Foxtail, Giant ([4]; 125 g ai/ha)	Plant response rating, Pigweed ([5]; 31 g ai/ha)	Plant response rating, Pigweed ([5]; 125 g ai/ha)	Plant response rating, Ryegrass, Italian ([6]; 31 g ai/ha)	Plant response rating, Ryegrass, Italian ([6]; 125 g ai/ha)	Plant response rating, Barnyardgrass ([7]; 31 g ai/ha)	Plant response rating, Barnyardgrass ([7]; 125 g ai/ha)	Plant response rating, Kochia ([8]; 31 g ai/ha)	Plant response rating, Kochia ([8]; 125 g ai/ha)	Plant response rating, Ragweed ([9]; 31 g ai/ha)	Plant response rating, Ragweed ([9]; 125 g ai/ha)	Plant response rating, Foxtail, Giant ([10]; 31 g ai/ha)	Plant response rating, Foxtail, Giant ([10]; 125 g ai/ha)	also measured
COc1nc(-c2ccc(OC(F)(F)F)cc2)nn1Cc1ccnc(C(F)(F)F)c1 [Compound 40]	0	0	0	0	0	0	0	0	0	30	0	0	0	0	0	0	0	0	0	0	Plant response rating, Pigweed ([11]; 31 g ai/ha): 30; Plant response rating, Pigweed ([11]; 125 g ai/ha): 70; Plant response rating, Ryegrass, Italian ([12]; 31 g ai/ha): 0; Plant response rating, Ryegrass, Italian ([12]; 125 g ai/ha): 0; Plant response rating, Wheat ([13]; 31 g ai/ha): 0; Plant response rating, Wheat ([13]; 125 g ai/ha): 0; Plant response rating, Corn ([14]; 31 g ai/ha): 0; Plant response rating, Corn ([14]; 125 g ai/ha): 20; Plant response rating, Blackgrass ([15]; 31 g ai/ha): 0; Plant response rating, Blackgrass ([15]; 125 g ai/ha): 0; Plant response rating, Galium ([16]; 31 g ai/ha): 20; Plant response rating, Galium ([16]; 125 g ai/ha): 30
CCCOc1nc(-c2ccc(C(F)(F)F)cc2)nn1Cc1ccnc(C(F)(F)F)c1 [Compound 41]	30	40	30	60	20	30	70	90	90	90	20	40	30	40	70	90	50	70	30	50	Plant response rating, Pigweed ([11]; 31 g ai/ha): 80; Plant response rating, Pigweed ([11]; 125 g ai/ha): 90; Plant response rating, Ryegrass, Italian ([12]; 31 g ai/ha): 20; Plant response rating, Ryegrass, Italian ([12]; 125 g ai/ha): 30; Plant response rating, Wheat ([13]; 31 g ai/ha): 0; Plant response rating, Wheat ([13]; 125 g ai/ha): 20; Plant response rating, Corn ([14]; 31 g ai/ha): 20; Plant response rating, Corn ([14]; 125 g ai/ha): 30; Plant response rating, Blackgrass ([15]; 31 g ai/ha): 20; Plant response rating, Blackgrass ([15]; 125 g ai/ha): 30; Plant response rating, Galium ([16]; 31 g ai/ha): 60; Plant response rating, Galium ([16]; 125 g ai/ha): 90
